Values of other authors in patent US12201639B2, “Aqueous oral pharmaceutical suspension compositions” (ReveraGen BioPharma, Inc., priority 2019, dated 2025).

Key:
[1] = test system: mouse models of inflammatory states; details: compared with prednisolone
glucocorticoid receptor = target: T1, glucocorticoid receptor (Homo sapiens, UniProt P04150); details: pre-clinical data
T1 sequence (P04150 1-777): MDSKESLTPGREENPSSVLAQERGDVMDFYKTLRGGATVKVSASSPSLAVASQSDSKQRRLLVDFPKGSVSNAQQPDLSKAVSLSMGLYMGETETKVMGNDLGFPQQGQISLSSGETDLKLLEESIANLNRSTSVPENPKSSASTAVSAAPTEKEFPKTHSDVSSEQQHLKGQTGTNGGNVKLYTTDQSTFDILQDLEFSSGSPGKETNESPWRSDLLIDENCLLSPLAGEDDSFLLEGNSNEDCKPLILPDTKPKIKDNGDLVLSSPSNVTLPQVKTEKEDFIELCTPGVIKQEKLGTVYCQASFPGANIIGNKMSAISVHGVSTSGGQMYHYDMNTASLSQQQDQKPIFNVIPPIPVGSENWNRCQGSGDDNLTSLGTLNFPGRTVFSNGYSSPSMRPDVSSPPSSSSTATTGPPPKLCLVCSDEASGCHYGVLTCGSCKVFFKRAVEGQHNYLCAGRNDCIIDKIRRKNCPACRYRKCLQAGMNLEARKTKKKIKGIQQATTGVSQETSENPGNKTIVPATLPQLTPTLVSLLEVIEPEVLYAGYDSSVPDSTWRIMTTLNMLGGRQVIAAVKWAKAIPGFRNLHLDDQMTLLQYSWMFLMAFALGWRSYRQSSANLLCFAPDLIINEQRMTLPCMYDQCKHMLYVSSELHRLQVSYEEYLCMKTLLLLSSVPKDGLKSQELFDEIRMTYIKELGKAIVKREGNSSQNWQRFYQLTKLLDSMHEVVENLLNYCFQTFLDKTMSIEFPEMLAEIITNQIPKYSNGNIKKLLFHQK

## C[C@@H]1C[C@H]2[C@@H]3CCC4=CC(=O)C=C[C@]4(C)C3=CC[C@]2(C)[C@@]1(O)C(=O)CO [vamorolone, 17α,21-dihydroxy-16α-methylpregna-1,4,9 (11)-triene-3,20-dione]
[1]
  side effect profiles (growth stunting, bone fragility) in mouse models: dramatically improves side effect profiles
Glucocorticoid receptor
  binding to the glucocorticoid receptor: binds potently
